Target: T1, EmCyclinD-EmCDK4/6 complex (Echinococcus multilocularis, UniProt A0A068YJR9)
T1 construct: gene EmuJ_001021000
T1 sequence (A0A068YJR9 1-711): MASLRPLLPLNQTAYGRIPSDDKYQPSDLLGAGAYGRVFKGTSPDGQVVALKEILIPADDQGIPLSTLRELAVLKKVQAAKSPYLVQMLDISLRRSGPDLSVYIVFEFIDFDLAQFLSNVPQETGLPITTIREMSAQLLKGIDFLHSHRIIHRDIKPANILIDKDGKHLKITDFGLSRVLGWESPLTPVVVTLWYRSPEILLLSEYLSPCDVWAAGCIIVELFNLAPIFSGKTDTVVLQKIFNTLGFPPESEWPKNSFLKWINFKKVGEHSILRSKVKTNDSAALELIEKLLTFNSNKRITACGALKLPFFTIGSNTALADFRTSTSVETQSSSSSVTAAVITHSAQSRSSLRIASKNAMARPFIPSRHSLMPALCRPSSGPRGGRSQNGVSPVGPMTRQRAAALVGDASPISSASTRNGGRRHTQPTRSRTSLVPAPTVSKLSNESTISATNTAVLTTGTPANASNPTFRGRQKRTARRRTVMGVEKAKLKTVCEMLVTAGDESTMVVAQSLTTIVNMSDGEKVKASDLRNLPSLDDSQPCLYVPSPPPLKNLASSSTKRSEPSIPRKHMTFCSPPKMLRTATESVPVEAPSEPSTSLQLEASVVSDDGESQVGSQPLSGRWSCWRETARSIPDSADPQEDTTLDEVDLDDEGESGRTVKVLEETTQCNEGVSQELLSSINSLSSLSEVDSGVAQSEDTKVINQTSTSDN
T1 sequence (A0A068Y4X2 1-386 partner): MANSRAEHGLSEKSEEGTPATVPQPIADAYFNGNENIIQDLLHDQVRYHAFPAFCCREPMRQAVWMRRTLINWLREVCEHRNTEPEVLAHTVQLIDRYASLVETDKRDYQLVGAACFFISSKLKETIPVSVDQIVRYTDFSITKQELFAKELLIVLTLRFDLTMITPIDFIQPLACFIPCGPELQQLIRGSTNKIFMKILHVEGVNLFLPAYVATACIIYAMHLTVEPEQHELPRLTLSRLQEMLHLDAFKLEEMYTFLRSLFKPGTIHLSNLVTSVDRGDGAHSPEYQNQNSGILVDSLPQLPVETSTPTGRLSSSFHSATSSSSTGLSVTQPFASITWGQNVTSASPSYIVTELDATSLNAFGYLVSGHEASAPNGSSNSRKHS
Settings: human Rb1 substrate (3 ug); 25 uM ATP, 20 mM MgCl2, 1 mM DTT, pH 7.5, RT, 20 min

**Q.** Which kinase activity does the source give for `Nc1ncnc2c1ncn2[C@@H]1O[C@H](COP(=O)(O)OP(=O)(O)OP(=O)(O)O)[C@@H](O)[C@H]1O` [ATP] here?
**A.** the EmCDK4/6-EmCyclinD complex displayed kinase activity against human Rb1

Reference: article PMC9410764, “EmCyclinD-EmCDK4/6 complex is involved in the host EGF-mediated proliferation of Echinococcus multilocularis germinative cells via the EGFR-ERK pathway” (Frontiers in Microbiology, 2022)
